Measurements reported in patent publication US9457057B2, “Methods for the prevention and treatment of burn injuries and secondary complications” (The General Hospital Corporation, priority 2009, dated 2016).

Key:
[1] = test system: mitochondrial aconitase; assay: Mitochondrial aconitase activity in 5% TBSA mice burn model (Example 9); type: in vivo, mouse; settings: burned animals
Text: Mitochondrial aconitase is part of the TCA cycle and its activity has been directly correlated with the TCA flux. Moreover, its activity is inhibited by ROS and thus it is considered as an index of oxidative stress. Here we present the local and systematic effects of burn on the mitochondrial aconitase activity using a 5% TBSA mice burn model. The effects of a mitochondrial peptide (SS-31) had been also examined.

[2] = test system: Sprague-Dawley rats; assay: Wound contraction after burn injury, area of the scab (Example 3); type: in vivo, rat; settings: 65° C. water 25 sec, 1 mg IP one hour prior to burn, 1 mg topical, 1 mg IP every 12 h for 72 h, time points ≧8 days post-burn, p=0.06 by ANOVA
Protocol: Sprague-Dawley rats (male, 300-350 g) were pre-treated with 1 mg SS-31 peptide administered IP (this corresponds to about 3 mg/kg) one hour prior to burn (65° C. water for 25 sec on the lower back), followed by topical treatment (1 mg on top of the wound), and 1 mg SS-31 peptide administered IP every 12 h for 72 h. Wounds were observed up to ˜3 weeks post-burn. In general, the wounds took the appearance of a hard scab, and for the purpose of this experiment, the area of the scab was quantified as a measure of wound size. […] Treatment with SS-31 slowed the wound contraction, which indicates the burn injury was less severe compared to burns in animals without the peptide treatment. As such, the aromatic-cationic peptides of the invention are useful in methods of treating wounds associated with a burn injury.

[3] = test system: caspase-3; assay: Liver caspase activity by an enzymatic reaction assay (Example 2); type: in vivo, mouse; settings: C57BL mice, 30% TBSA burn, 5 mg/kg daily
Text: FIG. 6 is a graph showing caspase-3 activity from the various treatment groups of Example 2.
(§1) Systemic inflammatory response syndrome (SIRS) and multiple organ failure (MOF) are leading causes of morbidity and mortality in severe burn patients. In this Example, the effects of the aromatic-cationic peptides of the invention on liver damage in a mouse model of burn injury were examined. Six to eight week old male C57BL mice were subjected to 30% total body surface area (TBSA) burn injury and subsequently injected daily with saline or SS-31 peptide (5 mg/kg body weight). A weight- and time-matched sham-burn group subjected to lukewarm (˜37° C.) water but otherwise treated exactly the same served as controls (FIG. 3). The liver tissues were collected 1, 3, and 7 days after burn injury treatment and used to examine apoptosis by TUNEL method, activated caspase protein levels by Western blots, and caspase activity by an enzymatic reaction assay.

[4] = test system: UCP-1; assay: UCP-1 expression in brown adipose tissue by Western blot (Example 7); type: in vivo, rat; settings: rats, III degree 30% TBSA burns; 2 mg/kg priming then 4 mg/kg/day infused 7 days; p=0.057
Protocol: (§2) Methods. Sprague Dawley rats were randomly divided into 5 groups; sham (S), sham with saline treatment (SSal), sham with SS-31 treatment (SPep), burn with saline treatment (BSal) and burn with SS-31 treatment (BPep). In burn group, the back of animal was immersed into 100° C. water for 12 seconds to produce III degree 30% TBSA burns under general anesthesia. Sham burn was produced by immersing the lukewarm water in the same manner. Both groups of animals received 40 ml/kg intraperitoneal saline injection for the resuscitation following the injury. A venous catheter was placed surgically into the right jugular vein subsequent to sham or burn injury. SS-31 (2 mg/kg) or saline was injected as priming, and infused for 7 days (4 mg/kg/day) using osmotic pump (Durect, CA). […] The indirect calorimetry was performed for 24 hours at 6 days after burn injury in a TSE Indirect Calorimetry System (TSE Co. Germany), and VO2, VCO2 and energy expenditure were recorded every six minutes. Interscapullar brown adipose tissue was collected after the indirect calorimetry, and UCP-1 expression in the brown adipose tissue was evaluated by Western blot.

[5] = test system: protein oxidation; assay: Liver protein oxidation by western blot (Example 2); type: in vivo, mouse; settings: C57BL mice, 30% TBSA burn, 5 mg/kg daily
Text: FIG. 7 is a photograph of a western blot analysis showing protein oxidation from the various treatment groups of Example 2.
as §1

[6] = test system: redox state of the gastrocnemius muscle; assay: Redox state of gastrocnemius muscle by nitroxide EPR after local burn (Examples 4 and 8); type: in vivo, mouse; settings: mice
Protocol: A clinically relevant murine nonlethal local burn injury model was used to address whether aromatic-cationic peptides can prevent/attenuate the adverse effects of burn injury on mitochondrial dysfunction and ER stress. The redox state of the gastrocnemius muscle immediately below a local cutaneous burn (90° for 3 sec) was evaluated by nitroxide EPR.
Next, the effect of SS-31 peptide treatment administered IP 30 min before burn, and immediately after burn (3 mg/kg each dose) was tested.
(§3) Materials and Methods. Male 6-week-old CD1 mice weighing 20-25 g were anesthetized by intraperitoneal (i.p.) injection of 40 mg/kg pentobarbital sodium. The left hind limb of all mice in all groups was shaved. Each burned mouse was subjected to a nonlethal scald injury of 3-5% total body surface area (TBSA) by immersing its left hind limb in 90° C. water for 3 sec.
EPR spectroscopy is described in detail in Khan et al. “Burn Trauma in skeletal muscle results in oxidative stress as assessed by in vivo electron paramagnetic resonance.” Mol Med Reports 1: 813-819 (2008). Briefly, mice were randomized into burn, burn+SS-31 peptide and control groups. The SS-31 peptide (3 mg/kg) was injected intraperitoneally at 0, 3, 6, 24, and 48 hours post-burn. EPR measurements were carried out with a 1.2-GHz EPR spectrometer equipped with a microwave bridge and external loop resonator specially designed for in vive experiments. The optimal spectrometer parameters were: incident microwave power, 10 mW; magnetic field center, 400 gauss; modulation frequency, 27 kHz. The decay kinetics of intravenously-injected nitroxide (150 mg/kg) were measured at the various time points, which indicated the mitochondrial redox status of the muscle.

[7] = test system: ATP synthesis rate (Pi→γATP) in hindlimb skeletal muscle; assay: In vivo 31P-NMR saturation transfer, ATP synthesis rate (Pi→γATP), mouse burn model (Examples 8 and 10)
Protocol: as §3
NMR spectroscopy is described in detail in Padfield, et al., Proc Natl Acad Sci USA 102: 5368-5373 (2005). Briefly, mice were randomized into burn, burn+SS-31 peptide, control, and control+peptide groups. The SS-31 peptide (3 mg/kg) was injected intraperitoneally at 30 min prior to burn and a second injection immediately after the burn. NMR experiments were performed in a horizontal bore magnet (proton frequency 400 MHz, 21 cm diameter, Magnex Scientific) using a Bruker Avance console. A 90° pulse was optimized for detection of phosphorus spectra (repetition time 2 s, 400 averages, 4K data points). Saturation 90°-selective pulse trains (duration 36.534 ms, bandwidth 75 Hz) followed by crushing gradients were used to saturate the γ-ATP peak. The same saturation pulse train was also applied downfield of the inorganic phosphate (Pi) resonance, symmetrically to the γ-ATP resonance. T1 relaxation times of Pi and phosphocreatine (PCr) were measured using an inversion recovery pulse sequence in the presence of γ-ATP saturation. […]
Values are means±SE; ΔM/M0 is the fractional change in Pi magnetization as a result of saturation transfer; T1obs is the observed spin lattice relaxation time of Pi during γATP saturation in seconds; ATP synthesis is calculated as [Pi]×k; [Pi] is the concentration of Pi extrapolated from the baseline NMR spectrum, comparing Pi and γATP peaks and ATP concentration measured with bioluminescence assay; k is calculated as (1/T1obs)×(ΔM/M0); P-values (unpaired Student's t-test) are for comparisons between experimental and control groups; * indicates only one dose of SS-31 peptide (3 mg/kg) was injected to animals immediately after burn.

[8] = test system: caspase-3; assay: Activated caspase protein levels in liver by Western blots (Example 2); type: in vivo, mouse; settings: C57BL mice, 30% TBSA burn, 5 mg/kg daily; day 3 and 7 post-burn
Protocol: as §1

[9] = test system: Sprague Dawley rats; assay: Indirect calorimetry after burn injury in a rat model (Example 1); type: in vivo; settings: 30% TBSA full thickness burn, SS-31 2 mg/kg IV q12h for three days, n = 3
Protocol: Sprague Dawley rats were randomized into three groups; sham-burn (SB), burn with saline treatment (B) and burn with peptide treatment (BP). Catheters were surgically placed into jugular vein and carotid artery. B and BP animals received 30% total body surface area full thickness burns by immersing the dorsal part into 100° C. water for 12 seconds with immediate fluid resuscitation. BP animals received IV injection of SS-31 (2 mg/kg every 12 h) for three days (FIG. 1). The EE of the animals were constantly monitored for 12 hours in a TSE Indirect Calorimetry System (TSE Co. Germany).

[10] = test system: apoptosis in the liver; assay: Liver apoptosis by TUNEL method after burn injury (Example 2); type: in vivo, mouse; settings: C57BL mice, 30% TBSA burn, 5 mg/kg daily; days 1, 3, 7, effects most obvious on day 7 post-burn
Protocol: as §1

[11] = test system: Sprague Dawley rats; assay: Indirect calorimetry 6 days after burn injury, 7-day infusion (Example 7); type: in vivo, rat; settings: III degree 30% TBSA burns, 2 mg/kg priming then 4 mg/kg/day infused 7 days
Protocol: as §2

[12] = test system: ATP synthesis rate (reaction PCr → γATP) in hindlimb skeletal muscle; assay: In vivo 31P-NMR saturation transfer, ATP synthesis rate (reaction PCr→γATP), mouse burn model (Example 8)
Protocol: as §3
NMR spectroscopy is described in detail in Padfield, et al., Proc Natl Acad Sci USA 102: 5368-5373 (2005). Briefly, mice were randomized into burn, burn+SS-31 peptide, control, and control+peptide groups. The SS-31 peptide (3 mg/kg) was injected intraperitoneally at 30 min prior to burn and a second injection immediately after the burn. NMR experiments were performed in a horizontal bore magnet (proton frequency 400 MHz, 21 cm diameter, Magnex Scientific) using a Bruker Avance console. A 90° pulse was optimized for detection of phosphorus spectra (repetition time 2 s, 400 averages, 4K data points). Saturation 90°-selective pulse trains (duration 36.534 ms, bandwidth 75 Hz) followed by crushing gradients were used to saturate the γ-ATP peak. The same saturation pulse train was also applied downfield of the inorganic phosphate (Pi) resonance, symmetrically to the γ-ATP resonance. T1 relaxation times of Pi and phosphocreatine (PCr) were measured using an inversion recovery pulse sequence in the presence of γ-ATP saturation. An adiabatic pulse (400 scans, sweep with 10 KHz, 4K data) was used to invert Pi and PCr, with an inversion time between 152 ms and 7651 ms.

[13] = 3-5% TBSA burn, 3 mg/kg IP, 6 h after burn, p<0.05, 3 mg/kg
[14] = Controls + Peptide (n = 5), unburned CD1 mice, 3 mg/kg IP two injections

D-Arg-2′,6′-dimethyltyrosine-Lys-Phe-NH2 [SS-31]
mitochondrial aconitase activity [1]: decreased mitochondrial aconitase activity up to the control levels | rate of wound contraction (area of the scab) [2]: slower rate of wound contraction | caspase activity in liver ([3]; day 3): trend for the increased caspase activity following burn injury to reverse | caspase activity in liver ([3]; post-burn day 7): reduced the caspase activity to a level that was statistically not different from that of sham control group | UCP-1 expression in brown adipose tissue, decrease in BPep group compared to BSal group [4]: 32% | protein oxidation following burn injury [5]: decreased protein oxidation | redox status of burn+peptide group as compared to burn (EPR) [6, 13]: significant increase (recovery) in the redox status | redox status of burn+peptide group as compared to control (EPR) [6, 13]: significant decrease in the redox status | rate of nitroxide reduction in gastrocnemius muscle ([6]; local burn, 3 mg/kg IP 30 min before burn and immediately after burn, 6 h timepoint): significantly increased the rate of nitroxide reduction | Pi ([7]; Burn + Peptide (n = 8), 3 mg/kg IP 30 min before burn and immediately after burn, 6 hours after burn): 2.93 ± 0.56 µmol/g | Pi ([7]; Burn + Peptide* (n = 8), only one dose 3 mg/kg immediately after burn): 1.41 ± 0.26 µmol/g | Pi [7, 14]: 5.49 ± 0.28 µmol/g | activated form of caspase-3 protein levels in liver [8]: reversed the increase in the activated form of caspase-3 protein levels on day 3 and 7 post-burn to the levels similar to those of sham control animals | RER [9]: 0.669 ± 0.005 | number of liver cells undergoing apoptosis (TUNEL) [10]: minimized the number of cells undergoing apoptosis | VO2, BPep group compared to BSal group ([11]; p<0.01): significantly attenuated | VCO2, BPep group compared to BSal group ([11]; p<0.05): significantly attenuated | energy expenditure, BPep group compared to BSal group ([11]; p<0.05): significantly attenuated | PCr ([12]; Burn + Peptide (n = 8), 3 mg/kg IP 30 min prior to burn and immediately after the burn): 3.25 ± 0.29 µmol/g | ATP synthesis rate (reaction PCr → γATP) [12, 14]: 0.50 ± 0.06 µmol/g/s | PCr [12, 14]: 3.76 ± 0.51 µmol/g
